# Source: patent US8293481B2, “Biomarkers for chronic vascular dysfunction” (Mayo Foundation for Medical Education and Research, priority 2006, dated 2012)
# System: Taok1 (TAO kinase 1)
# Assay: Real-time PCR gene expression in aorta post MI
# Assay type: in vivo, rat
# Settings: 2 weeks post-infarction
# Source text: After intubation, rats were ventilated continuously (room air) using a small animal ventilator (Model 683, Harvard Apparatus, Holliston, Mass.). A left lateral thoracotomy incision was made along the 5th intercostal space and after the pericardium was opened, the heart was exteriorized using a retention suture placed at the apex. The left anterior descending coronary artery (LAD) was ligated twice using 6-0 prolene suture (Ethicon, Cornelia, Ga.). After chest closure with running 3-0 vicryl suture (Ethicon), rats were put in a recovery chamber with a heating pad and warming light. The post-operative survival rate reached 80%. […] Rats were fed a standard diet of Teklad rodent feed (Harlan) ad libitum and kept on a 12:12 h light-dark cycle. Rats were sacrificed at designated time intervals of 2 weeks and 4 weeks after surgery. […] Isolation of total RNA: […] Surrounding peri-adventitial tissues, fat, and endothelium were then carefully cleaned away and removed. The remaining vascular smooth muscle was then frozen with liquid nitrogen, pulverized into fine powder, and resuspended in 600 μl of Buffer RLT with β-ME (10 μl β-ME: 1 ml Buffer RLT, Qiagen, Valencia, Calif.). The lysate was pipetted directly onto a QIAshredder spin column (Qiagen) placed in a 2 ml collection tube and centrifuged for 5 minutes at 14000 rpm, 4° C. The supernatant was transferred to a new microcentrifuge tube and 1 volume of 70% ethanol was added and mixed. The cleared lysate was then transferred to an RNeasy mini-column (Qiagen) placed in a 2 ml collection tube and spun for 15 seconds at ≧10,000 rpm, 4° C. The flow-through was discarded and 700 μl of Buffer RW1 (Qiagen) was added to the RNeasy column. After the column was spun for 15 seconds at ≧10,000 rpm (4° C.), it was transferred into a new 2 ml collection tube, washed, spun twice with 500 μl Buffer RPE (Qiagen), and eluted with 40 μl of RNase-free water using a microcentrifuge (≧10,000 rpm, 4° C.) for 1 minute. Final RNA samples were stored at -20° C. to prevent degradation. Confirmation of microarray result by quantitative real-time PCR: The remaining RNA from the aortic or portal vein RNA sample was quantitatively converted to single stranded cDNA using the High-Capacity cDNA Archive Kit (Applied Biosystems, Foster City, Calif.). Briefly, 50 μl of RNA sample was mixed with 50 μl of 2×RT master mix (10 μl of 10× Reverse Transcription Buffer, 4 μl of 25× dNTPs, 10 μl of 10× random primers, 5 μl of […] Reverse Transcriptase at 50 U/μl, 21 μl of RNase-free H2O) and pipetted into 0.2 ml MICROAMP® PCR Reaction Tubes with Caps (Applied Biosystems, Foster City, Calif.). Reverse transcription was performed using a thermal cycler (Eppendorf Mastercycler gradient) with incubation conditions set at 25° C. for 10 minutes followed by 37° C. for 120 minutes. The synthesized cDNA was then mixed with TAQMAN® Universal PCR Master Mix (2.5 μl of cDNA+47.5 μl of RNase-free H2O+50 μl of Master Mix) and loaded onto 384-Well micro fluid cards for quantitative real-time PCR (TAQMAN® Low Density Arrays, Applied Biosystems). This was done with customer-selected TAQMAN® Gene Expression Assays preloaded into each of the 384 wells. The 7900 HT Gene Expression Micro Fluid Card Configuration 2 (Applied Biosystems) with a total of 24 targets was used; 22 targets were selected to include the results from the microarray study, and the remaining two targets were controls GAPDH and 18S controls. For each cDNA sample, four replicates were analyzed for real-time PCR. After all ports of the Micro Fluidic Card were loaded with cDNA, it was spun for even distribution into the wells using a Sorvall Legend centrifuge (1 minute at 1200 rpm). The array was then run on the Applied Biosystems 7900HT Fast Real-time PCR System, and the data were analyzed using an Applied Biosystems RQ Manager Software (SDS 2.1). […]
smiles,measurement,value
"C[C@H](CS)C(=O)N1CCC[C@H]1C(=O)O [Captopril, 1-[(2S)-3-mercapto-2-methylpropionyl]-L-proline]","Taok1 expression, placebo or captopril therapy",did not demonstrate any difference
